These results are taken from patent US9050346B2, “Bromodomain inhibitors” (AbbVie Inc., priority 2013, dated 2015).

The test system of test [1] is breast cancer cell line MX-1. As to the kind of experiment: MX-1 cell line proliferation assay (3-day, Cell Titer Glo). It is filed as cell-based. The settings on record: Homo sapiens, MX1, MX-1 cells, 72 h, top concentration 3 μM, read-out: Cellular proliferation: EC50. The method, then:
The impact of compounds of the Examples on cancer cell proliferation was determined using the breast cancer cell line MX-1 (ATCC) in a 3-day proliferation assay and the data are reported in Table 1. MX-1 cells were maintained in RPMI 1640 medium (Sigma) supplemented with 10% FBS at 37 C.° and an atmosphere of 5% CO2. For compound testing, MX-1 cells were plated in 96-well black bottom plates at a density of 5000 cells/well in 90 μL of culture media and incubated at 37° overnight to allow cell adhesion and spreading. Compound dilution series were prepared in DMSO via a 3-fold serial dilution from 3 mM to 0.1 μM. The DMSO dilution series were then diluted 1:100 in phosphate buffered saline, and 10 μL of the resulted solution were added to the appropriate wells of the MX-1 cell plate. The final compound concentrations in the wells were 3, 1, 0.3, 0.1, 0.03, 0.01, 0.003, 0.001, 0.0003 and 0.0001 μM.
Luminescence readings from the Cell Titer Glo assay were normalized to the DMSO treated cells and analyzed using the GraphPad Prism software with sigmoidal curve fitting to obtain EC50s. The minimum significant ratio (MSR) was determined to evaluate assay reproducibility (Eastwood et al., (2006) J Biomol Screen, 11: 253-261).
In general terms: Cellular ATP, detected with luciferase, serves as a proxy for viable cell number.

A further test concerns the target T1, BRD4 (BDII_E352-M457) (Homo sapiens, UniProt O60885).
T1 construct: made in house
As to the kind of experiment: TR-FRET bromodomain binding assay, BRD4 second bromodomain. The method, then: (§1) A time-resolved fluorescence resonance energy transfer (TR-FRET) assay was used to determine the affinities of compounds of the Examples listed in Table 1 for each bromodomain of BRD4. His-tagged first (BD1: amino acids K57-E168) and second (BD2: amino acids E352-E168) bromodomains of BRD4 were expressed and purified. An Alexa647-labeled BET-inhibitor was used as the fluorescent probe in the assay.
(§2) Compound dilution series were prepared in DMSO via an approximately 3-fold serial dilution from one of the following: • Assay method A: 2.5 mM-800 nM • Assay method B: 2.5 mM-797 nM • Assay method C: 1250 μM-21 nM • Assay method D: 500 μM-8.5 nM • Assay method E: 0.47 mM to 7.8 nM • Assay method F: 250 μM-4.2 nM • Assay method G: 0.047 mM to 0.78 nM or 5-fold serial dilution from Assay Method A or Assay Method B.
(§3) For Assay methods A, C, D, and F: Compounds were then diluted 6:100 in assay buffer (20 mM Sodium Phosphate, pH 6.0, 50 mM NaCl, 1 mM Ethylenediaminetetraacetic acid, 0.01% Triton X-100, 1 mM DL-Dithiothreitol) to yield 3× working solutions. Six microliters (μL) of the working solution was then transferred to white, low-volume assay plates (Costar #3673). A 1.5× assay mixture containing His-tagged bromodomain, Europium-conjugated anti-His antibody (Invitrogen PV5596) and the Alexa-647-conjugated probe molecule was also prepared. Twelve μL of this solution were added to the assay plate to reach a final volume of 18 μL.
(§4) For Assay methods B, E, and G: Compound dilutions were added directly into white, low-volume assay plates (Perkin Elmer Proxiplate 384 Plus#6008280) using a Labcyte Echo in conjunction with Labcyte Access and Thermo Multidrop CombinL robotics. Compounds were then suspended in eight microliters (μL) of assay buffer (20 mM Sodium Phosphate, pH 6.0, 50 mM NaCl, 1 mM Ethylenediaminetetraacetic acid disodium salt dihydrate, 0.01% Triton X-100, 1 mM DL-Dithiothreitol) containing His-tagged bromodomain, Europium-conjugated anti-His antibody (Invitrogen PV5596) and Alexa-647-conjugated probe.
(§5) The final concentration of 1× assay mixture for assay methods A, B, C, D, E, F, and G contains 2% DMSO, 8 nM His-tagged bromodomain, 1 nM Europium-conjugated anti-His-tag antibody and 100 nM or 30 nM probe (for BDI or BDII, respectively) and compound concentration in the range of: 50 μM-16 nM for method A, 49.02 μM-15.63 nM for method B, 25 μM-423 pM for method C, 10 μM-169 pM for method D, 9.19 μM-150 pM for method E, 5 μM-85 pM for method F, and 0.92 μM-15 pM for method G.
(§6) After a one-hour equilibration at room temperature, TR-FRET ratios were determined using an Envision multilabel plate reader (Ex 340, Em 495/520).
(§7) TR-FRET data were normalized to the means of 24 no-compound controls (“high”) and 8 controls containing 1 μM un-labeled probe (“low”). Percent inhibition was plotted as a function of compound concentration and the data were fit with the 4 parameter logistic equation to obtain IC50s Inhibition constants (Ki) were calculated from the IC50s, probe Kd and probe concentration. Typical Z′ values were between 0.65 and 0.75. The minimum significant ratio was determined to evaluate assay reproducibility (Eastwood et al., (2006) J Biomol Screen, 11: 253-261). The MSR was determined to be 2.03 for BDI and 1.93 for BDII, and a moving MSR (last six run MSR overtime) for both BDI and BDII was typically <3.
For orientation: In TR-FRET formats the signal depends on donor and acceptor labels being close together.

Another test deals with T2, BRD4 (BDI_K57-E168) (Homo sapiens, UniProt O60885).
T2 construct: BD1: amino acids K57-E168; made in house
The test can be described thus: TR-FRET bromodomain binding assay, BRD4 first bromodomain. The conditions noted are these: His-tagged BD1, 100 nM Alexa647 probe; Ki calculated from IC50; dilution protocol A-G. The method, then:
as §1, §2, §3, §4, §5, §6, §7

`CCOC(=O)c1cc2c(-c3cc(F)ccc3OC3CCCCC3)[nH]c(C)c2c(=O)[nH]1` [Example 48, ethyl 1-[2-(cyclohexyloxy)-5-fluorophenyl]-3-methyl-4-oxo-4,5-dihydro-2H-pyrrolo[3,4-c]pyridine-6-carboxylate]: in test [1], the EC50 was determined as 139 nM. Further, the Ki was 96.4 nM on BRD4 (BDII_E352-M457) and 5.05 nM at BRD4 (BDI_K57-E168).
With `CNC(=O)c1cc2c(-c3ccccc3Oc3ccccc3)[nH]c(C)c2c(=O)[nH]1` [Example 13, N,3-dimethyl-4-oxo-1-(2-phenoxyphenyl)-4,5-dihydro-2H-pyrrolo[3,4-c]pyridine-6-carboxamide], the EC50 in test [1] amounted to 23.4 nM. For the same compound, the values for the inhibition constant Ki at BRD4 (BDII_E352-M457) and at BRD4 (BDI_K57-E168) were 14.1 nM and 4.38 nM, respectively.
On to `Cc1[nH]c(-c2ccccc2Oc2ccccc2)c2cc(C(=O)Nc3ccncc3)[nH]c(=O)c12` [Example 28, 3-methyl-4-oxo-1-(2-phenoxyphenyl)-N-(pyridin-4-yl)-4,5-dihydro-2H-pyrrolo[3,4-c]pyridine-6-carboxamide], for which, in test [1], the EC50 is 515 nM. The Ki on BRD4 (BDII_E352-M457) is 16.8 nM; at BRD4 (BDI_K57-E168), 42.7 nM.
On the same counts, the results for `Cc1[nH]c(-c2ccccc2Oc2ccccc2)c2cc(C(=O)NC3CCN(C)CC3)[nH]c(=O)c12` [Example 35, 3-methyl-N-(1-methylpiperidin-4-yl)-4-oxo-1-(2-phenoxyphenyl)-4,5-dihydro-2H-pyrrolo[3,4-c]pyridine-6-carboxamide] are 53.6 nM, 48.5 nM and 5.21 nM.
For `Cc1[nH]c(-c2ccccc2Oc2ccccc2)c2cc(-c3nc(C4CC4)no3)[nH]c(=O)c12` [Example 63, 6-(3-cyclopropyl-1,2,4-oxadiazol-5-yl)-3-methyl-1-(2-phenoxyphenyl)-2H-pyrrolo[3,4-c]pyridin-4(5H)-one], the EC50 in test [1] amounted to 139 nM. The Ki is 257 nM on BRD4 (BDII_E352-M457) and 43.5 nM at BRD4 (BDI_K57-E168).
On to `Cc1[nH]c(-c2ccccc2Oc2ccccc2)c2cc(C(=O)N3CCOCC3)[nH]c(=O)c12` [Example 15, 3-methyl-6-(morpholine-4-carbonyl)-1-(2-phenoxyphenyl)-2H-pyrrolo[3,4-c]pyridin-4(5H)-one], for which the EC50 in test [1] worked out at 1120 nM. Besides, the Ki on BRD4 (BDII_E352-M457) was 307 nM; on BRD4 (BDI_K57-E168), 105 nM.
Consider `Cc1[nH]c(-c2ccccc2Oc2ccccc2)c2cc(C(=O)NN(C)C)[nH]c(=O)c12` [Example 53, N′,N′,3-trimethyl-4-oxo-1-(2-phenoxyphenyl)-4,5-dihydro-2H-pyrrolo[3,4-c]pyridine-6-carbohydrazide], for which the EC50 in test [1] was determined as 162 nM. Besides, the Ki on BRD4 (BDII_E352-M457) is 72.1 nM; at BRD4 (BDI_K57-E168), 8.25 nM.
Take `Cc1[nH]c(-c2cc(S(C)(=O)=O)ccc2Oc2ccc(F)cc2F)c2cn[nH]c(=O)c12` [Example 81, 5-[2-(2,4-difluorophenoxy)-5-(methylsulfonyl)phenyl]-7-methyl-2,6-dihydro-1H-pyrrolo[3,4-d]pyridazin-1-one]: the EC50 in test [1] amounted to 394 nM. Further, the values for the Ki on BRD4 (BDII_E352-M457) and at BRD4 (BDI_K57-E168) were 254 nM and 22.7 nM, respectively.
As for `Cc1[nH]c(-c2ccccc2Oc2ccccc2)c2cc(C(=O)NC3CCNCC3)[nH]c(=O)c12` [Example 57, 3-methyl-4-oxo-1-(2-phenoxyphenyl)-N-(piperidin-4-yl)-4,5-dihydro-2H-pyrrolo[3,4-c]pyridine-6-carboxamide], the EC50 in test [1] worked out at 252 nM. Further, the Ki is 15.8 nM at BRD4 (BDII_E352-M457) and 1.78 nM at BRD4 (BDI_K57-E168).
`CCOC(=O)c1cc2c(-c3cc(N)ccc3Oc3ccc(F)cc3F)[nH]c(C)c2c(=O)[nH]1` [Example 4, ethyl 1-[5-amino-2-(2,4-difluorophenoxy)phenyl]-3-methyl-4-oxo-4,5-dihydro-2H-pyrrolo[3,4-c]pyridine-6-carboxylate]: the EC50 in test [1] is 77.6 nM. Besides, the Ki at BRD4 (BDII_E352-M457) is 91.3 nM; at BRD4 (BDI_K57-E168), 12.3 nM.
On to `Cc1[nH]c(-c2ccccc2Oc2ccccc2)c2cc(-c3nc(-c4ccncc4)no3)[nH]c(=O)c12` [Example 45, 3-methyl-1-(2-phenoxyphenyl)-6-(3-(pyridin-4-yl)-1,2,4-oxadiazol-5-yl)-2H-pyrrolo[3,4-c]pyridin-4(5H)-one], for which the EC50 in test [1] stood at 180 nM. For the same compound, the Ki on BRD4 (BDI_K57-E168) is 10.5 nM.
Regarding `CCOC(=O)c1cc2c(-c3ccc(-c4cc(C)n[nH]4)cc3)[nH]c(C)c2c(=O)[nH]1` [Example 8, ethyl 3-methyl-1-[4-(3-methyl-1H-pyrazol-5-yl)phenyl]-4-oxo-4,5-dihydro-2H-pyrrolo[3,4-c]pyridine-6-carboxylate], in test [1], the EC50 stood at 737 nM. Also, the Ki on BRD4 (BDII_E352-M457) was 615 nM; at BRD4 (BDI_K57-E168), 95.6 nM.
For `CCOC(=O)c1cc2c(-c3cc(S(C)(=O)=O)ccc3Oc3ccc(F)cc3F)[nH]c(C)c2c(=O)[nH]1` [Example 39, ethyl 1-[2-(2,4-difluorophenoxy)-5-(methylsulfonyl)phenyl]-3-methyl-4-oxo-4,5-dihydro-2H-pyrrolo[3,4-c]pyridine-6-carboxylate], in test [1], the EC50 came out at 222 nM. For the same compound, the values for the Ki on BRD4 (BDII_E352-M457) and at BRD4 (BDI_K57-E168) were 51.8 nM and 12.1 nM, respectively.
In the case of `Cc1[nH]c(-c2cc(CO)ccc2Oc2ccc(F)cc2F)c2c1C(=O)NCC2` [Example 103, 1-[2-(2,4-difluorophenoxy)-5-(hydroxymethyl)phenyl]-3-methyl-2,5,6,7-tetrahydro-4H-pyrrolo[3,4-c]pyridin-4-one], in test [1], the EC50 was 239 nM. For the same compound, the Ki at BRD4 (BDII_E352-M457) was 198 nM; at BRD4 (BDI_K57-E168) it was 122 nM.
On to `Cc1[nH]c(-c2cc(NS(C)(=O)=O)ccc2Oc2ccccc2)c2cc(C(N)=O)[nH]c(=O)c12` [Example 20, 3-methyl-1-(5-(methylsulfonamido)-2-phenoxyphenyl)-4-oxo-4,5-dihydro-2H-pyrrolo[3,4-c]pyridine-6-carboxamide], for which, in test [1], the EC50 is 146 nM. Also, the Ki was 2.39 nM on BRD4 (BDII_E352-M457) and 1.64 nM at BRD4 (BDI_K57-E168).
In the case of `Cc1cc(-c2ccc(-c3[nH]c(C)c4c(=O)[nH]ncc34)cc2)[nH]n1` [Example 83, 7-methyl-5-[4-(3-methyl-1H-pyrazol-5-yl)phenyl]-2,6-dihydro-1H-pyrrolo[3,4-d]pyridazin-1-one], the EC50 in test [1] was determined as 1720 nM. Also, the Ki on BRD4 (BDII_E352-M457) is 627 nM; at BRD4 (BDI_K57-E168), 126 nM.
In the case of `COC(=O)c1cc2c(-c3ccccc3Oc3ccccc3)[nH]c(C)c2c(=O)[nH]1` [Example 1, methyl 3-methyl-4-oxo-1-(2-phenoxyphenyl)-4,5-dihydro-2H-pyrrolo[3,4-c]pyridine-6-carboxylate], the EC50 in test [1] was determined as 67 nM. The Ki is 24.6 nM on BRD4 (BDII_E352-M457) and 3.04 nM at BRD4 (BDI_K57-E168).

By Ki is commonly meant the equilibrium dissociation constant of an inhibitor or competing ligand from its target.
